According to patent US6376497B1, “Antifungal azole derivatives having a fluorinated vinyl group and process for preparing same” (Korea Research Institute of Chemical Technology, priority 1999, dated 2002):

Legend:
Experiment in all cases: In vitro antifungal activity, microbroth dilution MIC
Type in all cases: cell-based
Settings in all cases: RPMI-1640, 35° C., 4 to 48 hours, no growth observed
[1] = test system: Aspergillus furnigatus B. 19119
Outline: (§1)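 Broth microdilution adapted from NCCLS M27, in RPMI-1640 with 0.165 M MOPS, pH 7.0. Yeast or mould inoculum at 2×10^3 CFU/ml was mixed 1:1 with DMSO-derived compound solutions (200 to 0.10 μg/ml before mixing) and incubated at 35 °C for 4 to 48 h. MIC was the concentration showing no growth.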

[2] = test system: Aspergillus niger A. 16404
Outline: as §1

[3] = test system: Candida albicans A. 10231
Outline: as §1

Candida albicans C1-2 = test system: Candida albicans C1-2
Outline: as §1

[4] = test system: Candida albicans IFO. 1385
Outline: as §1

Candida krusei K. 11655 = test system: Candida krusei K. 11655
Outline: as §1

[5] = test system: Candida parapsitosis A. 7330
Outline: as §1

[6] = test system: Candida pseudotropicalis K. 11658
Outline: as §1

[7] = test system: Candida tropicalis A. 13803
Outline: as §1

[8] = test system: Cryptococcus neoformans A. 34144
Outline: as §1

[9] = test system: Cryptococcus neoformans B. 42419
Outline: as §1

[10] = test system: Cryptococcus neoformans IFM. 40092
Outline: as §1

[11] = test system: Torulopsis glabrata B. 16205
Outline: as §1

[12] = test system: Trichophyton mentagrophytes A. 9129
Outline: as §1

[13] = test system: Trichophyton mentagrophytes B. 32663
Outline: as §1

| Compound | Minimal inhibitory concentration(MIC), A furnigatus B. 19119 [1] | Minimal inhibitory concentration(MIC), A. niger A. 16404 [2] | Minimal inhibitory concentration(MIC), C. albicans A. 10231 [3] | Minimal inhibitory concentration(MIC), C. albicans C1-2 (Candida albicans C1-2) | Minimal inhibitory concentration(MIC), C. albicans IFO. 1385 [4] | Minimal inhibitory concentration(MIC), C. krusei K. 11655 (Candida krusei K. 11655) | Minimal inhibitory concentration(MIC), C. parapsitosis A. 7330 [5] | Minimal inhibitory concentration(MIC), C. pseudotropicalis K. 11658 [6] | Minimal inhibitory concentration(MIC), C. tropicalis A. 13803 [7] | Minimal inhibitory concentration(MIC), Cry. neoformans A. 34144 [8] | Minimal inhibitory concentration(MIC), Cry. neoformans B. 42419 [9] | Minimal inhibitory concentration(MIC), Cry. neoformans IFM. 40092 [10] | Minimal inhibitory concentration(MIC), T. glabrata B. 16205 [11] | Minimal inhibitory concentration(MIC), T. mentagrophytes A. 9129 [12] | Minimal inhibitory concentration(MIC), T. mentagrophytes B. 32663 [13] |
| --- | --- | --- | --- | --- | --- | --- | --- | --- | --- | --- | --- | --- | --- | --- | --- |
| FC(Oc1ccc(OCC2COC(Cn3ccnc3)(c3ccc(Cl)cc3Cl)O2)cc1)=C(c1cccc(C(F)(F)F)c1)C(F)(F)F (mixture of isomers) [Ex. 96] | 100 mg/L | >100 mg/L | 100 mg/L | 100 mg/L | 3.13 mg/L | >100 mg/L | >100 mg/L | >100 mg/L | >100 mg/L | 3.13 mg/L | 3.13 mg/L | 0.39 mg/L | 100 mg/L | 12.5 mg/L | 6.25 mg/L |
| FC(Oc1ccc(OCC2COC(Cn3ccnc3)(c3ccc(Cl)cc3Cl)O2)cc1)=C(c1ccc(C(F)(F)F)cc1)C(F)(F)F (mixture of isomers) [Ex. 97] | >100 mg/L | >100 mg/L | >100 mg/L | >100 mg/L | 3.13 mg/L | >100 mg/L | >100 mg/L | >100 mg/L | >100 mg/L | 3.13 mg/L | 3.13 mg/L | 0.78 mg/L | 100 mg/L | 25.0 mg/L | 12.5 mg/L |
| COc1ccc(C(=C(F)Oc2ccc(OCC3COC(Cn4ccnc4)(c4ccc(Cl)cc4Cl)O3)cc2)C(F)(F)F)cc1 (mixture of isomers) [Ex. 98] | >100 mg/L | >100 mg/L | 50.0 mg/L | 100 mg/L | 3.13 mg/L | >100 mg/L | >100 mg/L | >100 mg/L | >100 mg/L | 3.13 mg/L | 6.25 mg/L | 0.78 mg/L | 50 mg/L | 25.0 mg/L | 6.25 mg/L |
| FC(Oc1ccc(OCC2COC(Cn3ccnc3)(c3ccc(Cl)cc3Cl)O2)cc1)=C(c1ccc2c(c1)OCO2)C(F)(F)F (mixture of isomers) [Ex. 99] | >100 mg/L | >100 mg/L | 100 mg/L | >100 mg/L | 3.13 mg/L | >100 mg/L | >100 mg/L | >100 mg/L | >100 mg/L | 3.13 mg/L | 3.13 mg/L | 0.78 mg/L | 100 mg/L | 50.0 mg/L | 25.0 mg/L |
| FC(Oc1ccc(OCC2COC(Cn3ccnc3)(c3ccc(Cl)cc3Cl)O2)cc1)=C(c1ccc(Oc2ccccc2)cc1)C(F)(F)F (mixture of isomers) [Ex. 100] | >100 mg/L | >100 mg/L | 50.0 mg/L | 100 mg/L | 6.25 mg/L | >100 mg/L | >100 mg/L | >100 mg/L | >100 mg/L | 6.25 mg/L | 12.5 mg/L | 1.56 mg/L | >100 mg/L | 100 mg/L | 100 mg/L |
| FC(Oc1ccc(OCC2COC(Cn3ccnc3)(c3ccc(Cl)cc3Cl)O2)cc1)=C(c1cccc(Cl)c1)C(F)(F)F (mixture of isomers) [Ex. 101] | 50.0 mg/L | >100 mg/L | 25.0 mg/L | 50.0 mg/L | 3.13 mg/L | >100 mg/L | >100 mg/L | >100 mg/L | >100 mg/L | 3.13 mg/L | 3.13 mg/L | 0.78 mg/L | 25.0 mg/L | 25.0 mg/L | 12.5 mg/L |
